Measurements: patent US5374541A, “Combined use of β-galactosidase and sialyltransferase coupled with in situ regeneration of CMP-sialic acid for one pot synthesis of oligosaccharides” (priority 1993, dated 1994)
Entries after “also recorded” stand apart in the source; their conditions may differ. Read-outs that look alike come from different tables or passages of the source.

What was measured:
[1] = aqueous buffers as are used here; cited from earlier work
[2] = target: T1, α(2,6)sialyltransferase (EC 2.4.99.1) (Bos taurus, UniProt O18974); assay: Sialylation of prepared galactosyl glycosides by the sialyltransferase; assay type: biochemical, bovine; details: one pot reaction, result in words
T1 construct: literature kinetics (Beyer, Paulson) and synthesis tests
T1 sequence (O18974 1-405): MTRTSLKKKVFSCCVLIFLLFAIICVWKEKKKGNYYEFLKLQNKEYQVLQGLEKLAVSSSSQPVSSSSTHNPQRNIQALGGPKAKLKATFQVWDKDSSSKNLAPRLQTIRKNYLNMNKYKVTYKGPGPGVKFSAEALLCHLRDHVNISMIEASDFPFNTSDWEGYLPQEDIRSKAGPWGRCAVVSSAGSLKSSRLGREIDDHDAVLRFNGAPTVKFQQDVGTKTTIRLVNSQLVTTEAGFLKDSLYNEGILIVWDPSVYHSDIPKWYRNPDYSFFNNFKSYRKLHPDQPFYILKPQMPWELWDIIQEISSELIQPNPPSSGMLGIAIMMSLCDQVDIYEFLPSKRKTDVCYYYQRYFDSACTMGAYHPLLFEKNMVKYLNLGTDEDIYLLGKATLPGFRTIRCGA
Description: A representative synthesis of Neu5Acα(2,6)-LacNAc (Compound 1) is discussed below. To a 1.07 mL HEPES buffer (0.2M, 20 mM MgCl2, 5.3 mM MnCl2, 20 mM KCl, pH 7.5) containing 12.3 mg Neu5Ac (20 mM; provided by Dr. U. Kragl, Research Center, Julich, Germany), 180 mg Lac (250 mM), 265 mg GlcNAc (600 mM), 30.2 mg PEP (trisodium salt, 40 mM), CMP (2 mM) and ATP (0.2 mM) were added myokinase (MK, EC 2.7.4.3; 6 U), pyruvate kinase (PK, EC 2.7.1.40; 80 U), inorganic pyrophosphatase (PPase, EC 3.6.1.1; 4 U), CMP-Neu5Ac synthetase (EC 2.7.43; 0.32 U), α(2,6)sialyltransferase (EC 2.4.99.1; 0,052 U) and 1 mg of crude β-galactosidase (EC 3.2.1.23) from Bacillus Circulans (provided by Daiwa Kasei KK, Osaka, Japan). The total volume was adjusted to 2 mL.
In a similar manner, the sialylated saccharide (Compound 2) was also prepared. […] Compound 10 was prepared as follows.

[3] = target: T2, α(2,6)sialyltransferase, rat liver (Rattus norvegicus, UniProt P13721); assay: Km and Vmax of acceptor molecules for rat liver α(2,6)sialyltransferase; assay type: biochemical; details: Table 1, footnoted values approximated from Weinstein et al.
T2 sequence (P13721 1-403): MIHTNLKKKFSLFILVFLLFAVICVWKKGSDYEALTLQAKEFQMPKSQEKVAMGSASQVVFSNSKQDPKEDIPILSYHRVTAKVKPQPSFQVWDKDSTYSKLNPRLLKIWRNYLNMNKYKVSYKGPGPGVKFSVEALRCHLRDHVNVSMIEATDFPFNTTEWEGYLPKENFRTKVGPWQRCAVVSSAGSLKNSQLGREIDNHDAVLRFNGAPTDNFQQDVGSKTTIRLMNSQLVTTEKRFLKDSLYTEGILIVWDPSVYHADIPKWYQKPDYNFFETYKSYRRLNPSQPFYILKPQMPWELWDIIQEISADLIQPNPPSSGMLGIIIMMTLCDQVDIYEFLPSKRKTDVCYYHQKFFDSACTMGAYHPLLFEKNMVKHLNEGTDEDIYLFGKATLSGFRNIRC
Description: Km is the Michaelis constant in units of moles/liter. Vmax is the reaction velocity at a constant concentration of enzyme, and is in units of enzyme units/milligram, one enzyme unit being that amount of enzyme that will catalyze the transformation of one micromole of substrate per minute under optimal conditions. The value of Km /Vmax is the slope of the line obtained from a Lineweaver-Burk plot.
Values for Km and Vmax for several galactosyl glycosides are available in the published literature and can be obtained using well known enzymatic techniques.

[4] = target: T2, α(2,6)sialyltransferase, rat liver; details: cited from earlier work; for substrate quality / sialylated product formation: Table 1 footnotes 4 and 5, rat liver α(2,6)sialyltransferase, Weinstein et al.
[5] = target: T3, α(2,3)sialyltransferase (EC 2.4.99.4) (Sus scrofa, UniProt Q02745); details: Table 1; cited from earlier work
T3 sequence (Q02745 1-343): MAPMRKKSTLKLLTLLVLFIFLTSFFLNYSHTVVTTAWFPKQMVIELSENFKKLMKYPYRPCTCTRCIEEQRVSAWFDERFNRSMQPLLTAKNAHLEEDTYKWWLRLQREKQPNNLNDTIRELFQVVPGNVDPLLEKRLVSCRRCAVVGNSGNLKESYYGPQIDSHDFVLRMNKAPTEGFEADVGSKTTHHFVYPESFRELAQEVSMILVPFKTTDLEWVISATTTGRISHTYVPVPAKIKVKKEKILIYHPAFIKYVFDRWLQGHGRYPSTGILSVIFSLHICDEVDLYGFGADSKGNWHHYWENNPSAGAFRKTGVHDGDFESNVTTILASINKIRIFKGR

[6] = target: T4, α(2,3)sialyltransferase (EC 2.4.99.6) (Rattus norvegicus, UniProt Q02734); details: Table 1; cited from earlier work
T4 sequence (Q02734 1-374): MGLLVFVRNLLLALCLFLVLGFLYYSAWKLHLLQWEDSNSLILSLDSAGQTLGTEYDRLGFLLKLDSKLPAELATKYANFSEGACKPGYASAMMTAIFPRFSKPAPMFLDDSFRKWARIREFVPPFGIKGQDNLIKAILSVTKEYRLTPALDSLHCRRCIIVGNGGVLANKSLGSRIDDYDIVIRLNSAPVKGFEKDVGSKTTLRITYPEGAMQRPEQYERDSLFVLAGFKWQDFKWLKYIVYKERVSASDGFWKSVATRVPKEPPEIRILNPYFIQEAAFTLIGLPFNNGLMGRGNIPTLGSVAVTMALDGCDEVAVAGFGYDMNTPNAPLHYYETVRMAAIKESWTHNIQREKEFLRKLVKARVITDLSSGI

[7] = target: T1, α(2,6)sialyltransferase (EC 2.4.99.1); details: cited from earlier work
[8] = test system: B. circulans β-galactosidase (EC 3.2.1.23); assay: Relative rates of galactoside substrates with B. circulans β-galactosidase; assay type: biochemical, Bacillus circulans; details: Lac = 100
Excerpt: That β-galactosidase accepts the following substrates with the indicated, parenthesized relative rates: Lac (100), o-nitrophenyl β-galactoside (10.6), methyl β-galactoside (1).

[9] = Table 1, α(2,6)sialyltransferase EC 2.4.99.1
[10] = α(2,6)sialyltransferase, Paulson et al.
[11] = Table 1, α(2,6)sialyltransferase, rat liver

For CC(=O)NC1C(O)CC(OP(=O)(O)OCC2OC(n3ccc(N)nc3=O)C(O)C2O)(C(=O)O)OC1C(O)C(O)CO (stereo not shown) [CMP-sialic acid], the half-life [1] is given as “only a few hours”.
With OC[C@H]1O[C@@H](O[C@H]2[C@H](O)[C@@H](O)C(O)S[C@@H]2CO)[C@H](O)[C@@H](O)[C@H]1O (stereo partly shown) [Compound 3, Galβ1→4(5-thio)Glc] the “substrate for the sialyltransferase / sialylated in the reaction” value [2] was “not a substrate; also recorded: not sialylated”.
In the case of [N-]=[N+]=N[C@H]1C(O)O[C@H](CO)[C@@H](O[C@@H]2O[C@H](CO)[C@H](O)[C@H](O)[C@H]2O)[C@@H]1O (stereo partly shown) [Compound 4, Galβ1→4(2-N3)Glc], the “substrate for the sialyltransferase / sialylated in the reaction” value [2] is reported as “very weak substrate; also recorded: sialylated, but poorly”.
In the case of CC(=O)N[C@H]1C(O)O[C@H](CO)[C@H](O)[C@@H]1O[C@@H]1O[C@H](CO)[C@H](O)[C@H](O)[C@H]1O (stereo partly shown) [Galβ1→3GalNAc], the Km/Vmax [3] is given as “very large”, the “substrate quality / sialylated product formation” value [4] is given as “No sialylated product was reported to be formed” and the Km [5] is given as 0.21 mM. For the same compound, the Vmax [5] was 8.9 units/mg.
In the case of CC(=O)N[C@H]1C(O)O[C@H](CO)[C@@H](O)[C@@H]1O[C@@H]1O[C@H](CO)[C@H](O)[C@H](O)[C@H]1O (stereo partly shown) [Galβ1→3GlcNAc], the “substrate quality / sialylated product formation” value [4] is listed as “poor substrate”, the Km [5] is listed as 65 mM and the Vmax [5] is listed as 4.4 units/mg. For the same compound, the Vmax [6] was 1.16 units/mg.
In the case of CC(=O)N[C@H]1C(O)O[C@H](CO)[C@@H](O[C@@H]2O[C@H](CO)[C@H](O)[C@H](O)[C@H]2O)[C@@H]1O (stereo partly shown) [Galβ1→4GlcNAc], the Vmax [7, 9] is given as 1 units/mg, the Vmax [7, 10] is given as 1.00 and the Vmax [4, 11] is given as 0.93 units/mg. For the same compound, the Km ([4]; Table 1, α(2,6)sialyltransferase, rat liver, from Weinstein et al.) was 1.62 mM, the Km [5] was 42 mM and the Vmax [5] was 0.11 units/mg. For the same compound, the Vmax [6] was 0.75 units/mg.
For OC[C@H]1O[C@@H](O[C@H]2[C@H](O)[C@@H](O)C(O)O[C@@H]2CO)[C@H](O)[C@@H](O)[C@H]1O (stereo partly shown) [Galβ1→4Glc], the “relative rate as substrate” value [8] is given as 100, the Vmax [7, 9] is given as 1.02 units/mg and the Vmax [7, 10] is given as 1.02. The Vmax [4, 11] was 0.30 units/mg, the Vmax [5] was 0.62 units/mg and the Km [6] was 9.4 mM. The Vmax [6] was 0.91 units/mg.
In the case of CC(=O)N[C@H]1C(O)O[C@H](CO[C@@H]2O[C@H](CO)[C@H](O)[C@H](O)[C@H]2O)[C@@H](O)[C@@H]1O (stereo partly shown) [Galβ1→6GlcNAc], the Vmax [7, 9] is listed as 0.03 units/mg, the Vmax [7, 10] is listed as 0.03 and the Vmax ([7]; α(2,6)sialyltransferase, low Vmax) is listed as 3%. The Km [5] was 29 mM and the Vmax [5] was 0.24 units/mg.
For CC(=O)N[C@H]1[C@H](O[C@H]2[C@@H](O)[C@@H](CO)O[C@@H](O[C@H]3[C@H](O)[C@@H](O)C(O)O[C@@H]3CO)[C@@H]2O)O[C@H](CO)[C@@H](O)[C@@H]1O[C@@H]1O[C@H](CO)[C@H](O)[C@H](O)[C@H]1O (stereo partly shown) [lacto-N-tetraose, Galβ1→3GlcNAcβ1→3Galβ1→4Glc], the Vmax [5] is given as 3.6 units/mg and the Vmax [6] is given as 1.00 units/mg.
With CO[C@@H]1O[C@H](CO)[C@H](O)[C@H](O)[C@H]1O [methyl β-galactoside] the “relative rate as substrate” value [8] was 1.
For O=[N+]([O-])c1ccccc1O[C@@H]1O[C@H](CO)[C@H](O)[C@H](O)[C@H]1O [o-nitrophenyl β-galactoside], the “relative rate as substrate” value [8] was 10.6.
